Source: patent EP4813463A2, “TYK2 INHIBITORS AND COMPOSITIONS AND METHODS THEREOF” (Lynk Pharmaceuticals Co. Ltd., priority 2023, dated 2024)
Where two headings read alike, the source gives them in different places.

What was measured:
[1] = biological target: T1, TYK2-JH2 domain (Homo sapiens, UniProt P29597); assay: Binding activity test for JH2 domain of TYK2 (Tb-antibody/tracer FRET)
T1 construct: JAK1-JH2 domain or TYK2-JH2 domain enzyme in assay buffer
Summary of the method: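 IC50 values (nM) come from TR-FRET readings taken after a 25°C incubation followed by overnight at 4°C. Each well held JH2 domain protein, Tb-antibody, tracer and test compound titrated in 11 threefold steps, with DMSO high and low controls.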

[2] = biological target: T2, JAK1-JH2 domain (Homo sapiens, UniProt P23458); assay: Binding activity test for JH2 domain of JAK1 (Tb-antibody/tracer FRET)
T2 construct: JAK1-JH2 domain or TYK2-JH2 domain enzyme in assay buffer
Method: Binding Activity test for JH2 domain of JAK1 and TYK2 […] Add 8μL/well in echo source plate, echo will add 75nL/well with 3-fold serial dilution for 11 points in assay plate. 75nL DMSO for high control and low control. […] For low control, add 5μL/well assay buffer. And then spin down at 1000rpm and centrifuge for 30 seconds. After enzyme system prepared, add 5μL of Tb-antibody solution into each well of assay plate. Spin down at 1000 rpm and centrifuge for 30sec. After Tb-antibody added, also add 5μL of tracer into the assay plate. Spin down at 1000rpm and centrifuge for 30sec. Incubate for […] at 25°C firstly and then continue to incubate the plate at 4°C overnight. Read by envision in FRET mode. The Luminescence value was recorded by a multi-label reader Envision (PerkinElmer). […] Table 2. IC50 on JH2 domain activity (nM)

[3] = system: Ba/F3-FL-TYK2-P760L cells; assay: Anti-proliferative assay in engineered Ba/F3 cells (Cell-Titer Glo, 72 h); format: cell-based; conditions: concentration that causes 50% growth inhibition, read-out: Baf3-FL-T2P760L
Summary of the method: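 IC50 from luminescent ATP viability after 72 h compound exposure (37 °C, 5% CO2), % inhibition normalised to DMSO-treated cells minus medium blank. IL-3-free Ba/F3-FL-TYK2-P760L (Tel-JAK fusion) cells in 10% FBS RPMI-1640 received 9 three-fold doses, top 20 µM, 0.1% DMSO.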

[4] = JH2 domain enzyme; 60 min at 25°C, then 4°C overnight; read-out: TYK2 JH2 Binding IC50
[5] = ratio of JAK1 JH2 to TYK2 JH2 binding IC50
[6] = JH2 domain enzyme; 60 min at 25°C, then 4°C overnight; read-out: JAK1 JH2 Binding IC50
[7] = Mus musculus, BaF3, 72 h, 72 h compound treatment

T2 sequence (P23458 583-855 limits assumed): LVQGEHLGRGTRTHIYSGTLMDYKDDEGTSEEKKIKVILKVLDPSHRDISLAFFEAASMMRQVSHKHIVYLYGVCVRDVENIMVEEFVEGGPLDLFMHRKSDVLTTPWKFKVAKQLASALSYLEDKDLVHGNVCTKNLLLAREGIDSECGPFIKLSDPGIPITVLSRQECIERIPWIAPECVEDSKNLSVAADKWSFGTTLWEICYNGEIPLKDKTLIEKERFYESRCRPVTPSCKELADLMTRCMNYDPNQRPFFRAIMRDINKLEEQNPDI
T1 sequence (P29597 589-875 limits assumed): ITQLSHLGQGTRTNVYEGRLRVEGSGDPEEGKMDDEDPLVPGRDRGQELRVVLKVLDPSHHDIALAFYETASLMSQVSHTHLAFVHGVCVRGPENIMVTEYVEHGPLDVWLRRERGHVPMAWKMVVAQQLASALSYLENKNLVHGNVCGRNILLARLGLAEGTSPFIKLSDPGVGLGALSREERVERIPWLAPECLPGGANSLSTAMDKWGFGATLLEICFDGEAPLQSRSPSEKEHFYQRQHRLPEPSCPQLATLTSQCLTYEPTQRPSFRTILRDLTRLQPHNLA

| SMILES | IC50 [1, 4] [nM] | JAK1/TYK2 selectivity [1, 5] | IC50 [2, 6] [nM] | IC50 ([3]; 72 h compound treatment) [nM] | IC50 [3, 7] [nM] | IC50 ([1]; read-out: TYK2 JH2 Binding IC50; JH2 domain enzyme; 60 min at 25°C, then 4°C overnight) [nM] | IC50 ([2]; read-out: JAK1 JH2 Binding IC50; JH2 domain enzyme; 60 min at 25°C, then 4°C overnight) [nM] | IC50 ([3]; Mus musculus, BaF3, 72 h compound treatment) [nM] |
| --- | --- | --- | --- | --- | --- | --- | --- | --- |
| [2H]C([2H])([2H])CC(=O)c1cnc(NC(=O)C2CC2)cc1Nc1nn(C)c2ccc(C(OC)C(F)(F)F)c(OC)c12 (single isomer, unassigned) [Example 65A, (R*)-N-(4-((4-methoxy-1-methyl-5-(2,2,2-trifluoro-1-methoxyethyl)-1H-indazol-3-yl)amino)-5-(propanoyl-3,3,3-d3)pyridin-2-yl)cyclopropanecarboxamide] | 0.54 | >553.80 | > 298 | 117 | – | – | – | – |
| [2H]C([2H])([2H])CC(=O)c1cnc(NC(=O)C2CC2)cc1Nc1nn(C)c2ccc(C(OC)C(F)(F)F)c(OC)c12 (single isomer, unassigned) [Example 65B, (S*)-N-(4-((4-methoxy-1-methyl-5-(2,2,2-trifluoro-1-methoxyethyl)-1H-indazol-3-yl)amino)-5-(propanoyl-3,3,3-d3)pyridin-2-yl)cyclopropanecarboxamide] | 0.09 | 144.84 | 12.5 | 2.1 | – | – | – | – |
| [2H]C([2H])([2H])NC(=O)c1nnc(NC(=O)C2CC23CC3)cc1Nc1cnn2ccc([C@H](O)C(F)(F)F)c(OC)c12 (single isomer, unassigned) [Example 82A, 4-((4-Methoxy-5-((S)-2,2,2-trifluoro-1-hydroxyethyl)pyrazolo[1,5-a]pyridin-3-yl)amino)-N-(methyl-d3)-6-((R*)-spiro[2.2]pentane-1-carboxamido)pyridazine-3-carboxamide] | 0.21 | 38.29 | 7.96 | – | 35 | – | – | – |
| [2H]C([2H])([2H])NC(=O)c1nnc(NC(=O)C2CC23CC3)cc1Nc1cnn2ccc([C@H](O)C(F)(F)F)c(OC)c12 (single isomer, unassigned) [Example 82B, 4-((4-Methoxy-5-((S)-2,2,2-trifluoro-1-hydroxyethyl)pyrazolo[1,5-a]pyridin-3-yl)amino)-N-(methyl-d3)-6-((S*)-spiro[2.2]pentane-1-carboxamido)pyridazine-3-carboxamide] | 0.23 | 27.48 | 6.32 | 27 | – | – | – | – |
| CCOC(c1ccc2c(c(Nc3cc(NC(=O)C4CC4)ncc3C(=O)OC)nn2C)c1OC)C(F)(F)F (single isomer, unassigned) [Example 106B, Methyl (S*)-6-(cyclopropanecarboxamido)-4-((5-(1-ethoxy-2,2,2-trifluoroethyl)-4-methoxy-1-methyl-1H-indazol-3-yl)amino)nicotinate] | 0.21 | 75.19 | 15.8 | – | 5.49 | – | – | – |
| CNC(=O)c1nnc(NC(=O)C2CC2)cc1Nc1cn(C)c2cccc(OC)c12 [Example 1, 6-(Cyclopropanecarboxamido)-4-((4-methoxy-1-methyl-1H-indol-3-yl)amino)-N-methylpyridazine-3-carboxamide] | 2.33 | 8.4 | 19.5 | – | 1170 | – | – | – |
| [2H]C([2H])([2H])NC(=O)c1cnc(NC(=O)C2CC2)cc1Nc1cnn2ccc(C(=O)OC)c(OC)c12 [Example 6, Methyl 3-((2-(cyclopropanecarboxamido)-5-((methyl-d3)carbamoyl)pyridin-4-yl)amino)-4-methoxypyrazolo[1,5-a]pyridine-5-carboxylate] | 0.482 | 15.4 | 7.45 | – | 146 | – | – | – |
| [2H]C([2H])([2H])NC(=O)c1cnc(NC(=O)C2CC2)cc1Nc1cnn2ccc(C(F)(F)F)c(OC)c12 [Example 10, 6-(Cyclopropanecarboxamido)-4-((4-methoxy-5-(trifluoromethyl)pyrazolo[1,5-a]pyridin-3-yl)amino)-N-(methyl-d3)nicotinamide] | 0.224 | 43.3 | 9.71 | – | 120 | – | – | – |
| [2H]C([2H])([2H])NC(=O)c1cnc(NC(=O)[C@@H]2C[C@@H]2F)cc1Nc1cnn2ccc(C(F)(F)F)c(OC)c12 [Example 11, 6-((1S,2S)-2-fluorocyclopropane-1-carboxamido)-4-((4-methoxy-5-(trifluoromethyl)pyrazolo[1,5-a]pyridin-3-yl)amino)-N-(methyl-d3)nicotinamide] | 0.182 | 96.5 | 17.6 | – | 54.5 | – | – | – |
| [2H]C([2H])([2H])NC(=O)c1cnc(NC(=O)C2CC2)cc1Nc1cnn2ccc(COC)c(OC)c12 [Example 16, 6-(Cyclopropanecarboxamido)-4-((4-methoxy-5-(methoxymethyl)pyrazolo[1,5-a]pyridin-3-yl)amino)-N-(methyl-d3)nicotinamide] | 0.22 | 64.0 | 14.1 | – | 87 | – | – | – |
| [2H]C([2H])([2H])NC(=O)c1cnc(NC(=O)C2CC2)cc1Nc1cnn2ccc([C@H](OC([2H])([2H])[2H])C(F)(F)F)c(OC)c12 [Example 28, (S)-6-(cyclopropanecarboxamido)-4-((4-methoxy-5-(2,2,2-trifluoro-1-(methoxy-d3)ethyl)pyrazolo[1,5-a]pyridin-3-yl)amino)-N-(methyl-d3)nicotinamide] | 0.073 | 102.5 | 7.48 | – | 10.7 | – | – | – |
| [2H]C([2H])([2H])NC(=O)c1cnc(NC(=O)C2CC2)cc1Nc1cnn2ccc(C(C)(C)O)c(C)c12 [Example 34, 6-(Cyclopropanecarboxamido)-4-((5-(2-hydroxypropan-2-yl)-4-methylpyrazolo[1,5-a]pyridin-3-yl)amino)-N-(methyl-d3)nicotinamide] | 161 | >1.85 | > 298 | – | > 5000 | – | – | – |
| [2H]C([2H])([2H])NC(=O)c1cnc(NC(=O)[C@@H]2C[C@@H]2F)cc1Nc1cnn2cnc(OC)c(OC)c12 [Example 36, 4-((4,5-Dimethoxypyrazolo[1,5-c]pyrimidin-3-yl)amino)-6-((1S,2S)-2-fluorocyclopropane-1-carboxamido)-N-(methyl-d3)nicotinamide] | 4.55 | 56.0 | 255 | – | 1770 | – | – | – |
| [2H]C([2H])([2H])NC(=O)c1cnc(NC(=O)[C@@H]2C[C@@H]2F)cc1Nc1cnn2cnc(C(O)C(F)(F)F)c(OC)c12 (stereo partly shown) [Example 39, 6-((18,25)-2-fluorocyclopropane-1-carboxamido)-4-((4-methoxy-5-(2,2,2-trifluoro-1-hydroxyethyl)pyrazolo[1,5-c]pyrimidin-3-yl)amino)-N-(methyl-d3)nicotinamide] | – | >532.1 | – | – | – | 0.561 | > 298 | 350 |
| [2H]C([2H])([2H])NC(=O)c1cnc(NC(=O)C2CC2)cc1Nc1cnn2ccccc12 [Example 40, 6-(Cyclopropanecarboxamido)-N-(methyl-d3)-4-(pyrazolo[1,5-a]pyridin-3-ylamino)nicotinamide] | 186 | >1.6 | > 298 | – | > 5000 | – | – | – |
| [2H]C([2H])([2H])NC(=O)c1cnc(NC(=O)C2CC2)cc1Nc1cnn2ccc(C(O)C(F)(F)F)cc12 (stereo not shown) [Example 41, 6-(Cyclopropanecarboxamido)-N-(methyl-d3)-4-((5-(2,2,2-trifluoro-1-hydroxyethyl)pyrazolo[1,5-a]pyridin-3-yl)amino)nicotinamide] | 46.8 | >6.37 | > 298 | – | > 5000 | – | – | – |
